Reference: patent US8765730B2 (Hoffmann-La Roche Inc, priority 2010, dated 2014)
Like-named read-outs stand apart in the source and are kept apart here.

Molecular target: T1, human GPBAR1 receptor (Homo sapiens, UniProt Q8TDU6)
T1 construct: expressed in transfected cells
T1 sequence (Q8TDU6 1-330): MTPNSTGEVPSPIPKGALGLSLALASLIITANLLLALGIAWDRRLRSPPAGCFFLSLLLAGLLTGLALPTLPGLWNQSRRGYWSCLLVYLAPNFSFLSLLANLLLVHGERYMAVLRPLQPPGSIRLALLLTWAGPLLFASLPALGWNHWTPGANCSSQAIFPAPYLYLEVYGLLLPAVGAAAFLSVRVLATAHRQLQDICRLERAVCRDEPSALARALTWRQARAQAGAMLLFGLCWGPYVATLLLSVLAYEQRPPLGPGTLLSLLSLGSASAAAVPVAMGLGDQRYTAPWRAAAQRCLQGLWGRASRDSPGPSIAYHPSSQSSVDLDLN
Experiment: functional cAMP assay in CHO-dhfr(minus) cells expressing human GPBAR1 receptors
Format: cell-based
Conditions: 30 min at 30° C.
Summary of the method: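 Agonist cAMP read-out: stable GPBAR1 CHO-dhfr− clone, 30 min compound exposure at 30° C following 30 min IBMX (1 mM) preincubation in Krebs Ringer bicarbonate. Time-resolved energy-transfer detection gives EC50; parental CHO cells serve as counter-screen.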

[1] = human EC50, functional cAMP assay

Compound | EC50 [1] [nM] | EC50 (functional cAMP assay, read-out: human EC50) [nM]
Cn1cc(/C(CC(c2ccccc2Cl)C2CC[N+](C)(C)CC2)=N/O)ccc1=O (centres unmarked) [Example 198, 4-[1-(2-Chloro-phenyl)-3-[(E)-hydroxyimino]-3-(1-methyl-6-oxo-1,6-dihydro-pyridin-3-yl)-propyl]-1,1-dimethyl-piperidinium iodide] | 9640 | 
Cc1cc(=O)n(C)cc1/C(CC(c1ccc(Br)cc1)c1ccccc1C)=N/O (centres unmarked) [Example 199, 5-{3-(4-Bromo-phenyl)-1-[(E)-hydroxyimino]-3-o-tolyl-propyl}-1,4-dimethyl-1H-pyridin-2-one] | 23 | 
Cc1cc(=O)n(C)cc1/C(CC(c1ccc(Br)cc1)c1ccccc1C)=N\O (centres unmarked) [Example 200, 5-{3-(4-Bromo-phenyl)-1-[(Z)-hydroxyimino]-3-o-tolyl-propyl}-1,4-dimethyl-1H-pyridin-2-one] | 558 | 
Cn1cc(/C(CC(c2ccc(Br)cc2)c2ccccc2Cl)=N/O)ccc1=O (centres unmarked) [Example 203, 5-{3-(4-Bromo-phenyl)-3-(2-chloro-phenyl)-1-[(E)-hydroxyimino]-propyl}-1-methyl-1H-pyridin-2-one] | 12 | 
Cc1ccccc1C(C/C(=N\O)c1ccc(=O)n(C)c1)c1ccc(C(=O)N2CCOCC2)cc1 (centres unmarked) [Example 207, 5-{1-[(E)-Hydroxyimino]-3-[4-(morpholine-4-carbonyl)-phenyl]-3-o-tolyl-propyl}-1-methyl-1H-pyridin-2-one] | 711 | 
Cc1ccccc1C(C/C(=N\O)c1ccc(=O)n(C)c1)c1ccc(C(=O)NCCO)cc1 (centres unmarked) [Example 208, N-(2-Hydroxy-ethyl)-4-[3-[(E)-hydroxyimino]-3-(1-methyl-6-oxo-1,6-dihydro-pyridin-3-yl)-1-o-tolyl-propyl]-benzamide] | 93 | 
Cc1ccccc1C(C/C(=N\O)c1ccc(=O)n(C)c1)c1ccc(C(=O)N(C)CCO)cc1 (centres unmarked) [Example 209, N-(2-Hydroxy-ethyl)-4-[3-[(E)-hydroxyimino]-3-(1-methyl-6-oxo-1,6-dihydro-pyridin-3-yl)-1-o-tolyl-propyl]-N-methyl-benzamide] | 443 | 
Cc1ccccc1C(C/C(=N\O)c1ccc(=O)n(C)c1)c1ccc(C(=O)N2CCC(CC(=O)O)CC2)cc1 (centres unmarked) [Example 210, (1-{4-[3-[(E)-Hydroxyimino]-3-(1-methyl-6-oxo-1,6-dihydro-pyridin-3-yl)-1-o-tolyl-propyl]-benzoyl}-piperidin-4-yl)-acetic acid] | 6890 | 
Cc1ccccc1C(C/C(=N\O)c1ccc(=O)n(C)c1)c1ccc(C(=O)N(C)CC(=O)O)cc1 (centres unmarked) [Example 211, ({4-[3-[(E)-Hydroxyimino]-3-(1-methyl-6-oxo-1,6-dihydro-pyridin-3-yl)-1-o-tolyl-propyl]-benzoyl}-methyl-amino)-acetic acid] | 5980 | 
CCOC(=O)CCCNC(=O)c1ccc(C(C/C(=N\O)c2ccc(=O)n(C)c2)c2ccccc2C)cc1 (centres unmarked) [Example 212, 4-{4-[3-[(E)-Hydroxyimino]-3-(1-methyl-6-oxo-1,6-dihydro-pyridin-3-yl)-1-o-tolyl-propyl]-benzoylamino}-butyric acid ethyl ester] |  | 153
Cc1ccccc1C(C/C(=N\O)c1ccc(=O)n(C)c1)c1ccc(C(=O)NCCCC(=O)O)cc1 (centres unmarked) [Example 213, 4-{4-[3-[(E)-Hydroxyimino]-3-(1-methyl-6-oxo-1,6-dihydro-pyridin-3-yl)-1-o-tolyl-propyl]-benzoylamino}-butyric acid] | 1310 | 
Cc1ccccc1C(C/C(=N\O)c1ccc(=O)n(C)c1)c1ccc(C(=O)NCCC(=O)O)cc1 (centres unmarked) [Example 214, 3-{4-[3-[(E)-Hydroxyimino]-3-(1-methyl-6-oxo-1,6-dihydro-pyridin-3-yl)-1-o-tolyl-propyl]-benzoylamino}-propionic acid] | 1220 | 
Cc1ccccc1C(C/C(=N\O)c1ccc(=O)n(C)c1)c1ccc(C(=O)NCC(=O)O)cc1 (centres unmarked) [Example 215, {4-[3-[(E)-Hydroxyimino]-3-(1-methyl-6-oxo-1,6-dihydro-pyridin-3-yl)-1-o-tolyl-propyl]-benzoylamino}-acetic acid] | 810 | 
Cn1cc(/C(CC(c2ccc(C(=O)N[C@H]3CC[C@H](O)CC3)c(F)c2)c2ccccc2Cl)=N/O)ccc1=O (stereo partly drawn) [Example 217, Trans-4-[1-(2-Chloro-phenyl)-3-[(E)-hydroxyimino]-3-(1-methyl-6-oxo-1,6-dihydro-pyridin-3-yl)-propyl]-2-fluoro-N-(4-hydroxy-cyclohexyl)-benzamide] | 700 | 
CN1CCC(N(C)C(=O)c2ccc(C(C/C(=N\O)c3ccc(=O)n(C)c3)c3ccccc3Cl)cc2F)CC1 (centres unmarked) [Example 218, (E)-4-(1-(2-Chlorophenyl)-3-(hydroxyimino)-3-(1-methyl-6-oxo-1,6-dihydropyridin-3-yl)propyl)-2-fluoro-N-methyl-N-(1-methylpiperidin-4-yl)benzamide] | 1640 | 
Cn1cc(/C(CC(c2ccc(C(=O)NC3CCOCC3)c(F)c2)c2ccccc2Cl)=N/O)ccc1=O (centres unmarked) [Example 219, (E)-4-(1-(2-Chlorophenyl)-3-(hydroxyimino)-3-(1-methyl-6-oxo-1,6-dihydropyridin-3-yl)propyl)-2-fluoro-N-(tetrahydro-2H-pyran-4-yl)benzamide] | 1160 | 
Cn1cc(/C(CC(c2ccc(C(=O)NC3COC3)c(F)c2)c2ccccc2Cl)=N/O)ccc1=O (centres unmarked) [Example 220, (E)-4-(1-(2-Chlorophenyl)-3-(hydroxyimino)-3-(1-methyl-6-oxo-1,6-dihydropyridin-3-yl)propyl)-2-fluoro-N-(oxetan-3-yl)benzamide] | 680 | 
Cc1ccccc1C(C/C(=N\O)c1ccc(=O)n(C)c1)c1ccc(OCC(=O)O)cc1F (centres unmarked) [Example 221, {3-Fluoro-4-[3-[(E)-hydroxyimino]-3-(1-methyl-6-oxo-1,6-dihydro-pyridin-3-yl)-1-o-tolyl-propyl]-phenoxy}-acetic acid] | 4080 | 
Cc1ccccc1C(C/C(=N\O)c1ccc(=O)n(C)c1)c1ccc(Oc2ccc(C(=O)O)c(F)c2)cc1F (centres unmarked) [Example 222, 2-Fluoro-4-{3-fluoro-4-[3-[(E)-hydroxyimino]-3-(1-methyl-6-oxo-1,6-dihydro-pyridin-3-yl)-1-o-tolyl-propyl]-phenoxy}-benzoic acid] | 3590 | 
Cc1cc(F)ccc1C(C/C(=N\O)c1ccc(=O)n(C)c1)c1ccc(Br)cc1 (centres unmarked) [Example 224, (E)-5-(3-(4-Bromophenyl)-3-(4-fluoro-2-methylphenyl)-1-(hydroxyimino)propyl)-1-methylpyridin-2(1H)-one] | 6 | 
Cc1cc(F)ccc1C(C/C(=N\O)c1ccc(=O)n(C)c1)c1ccc(-c2ccc(C(=O)O)cc2)cc1 (centres unmarked) [Example 225, (E)-4′-(1-(4-Fluoro-2-methylphenyl)-3-(hydroxyimino)-3-(1-methyl-6-oxo-1,6-dihydropyridin-3-yl)propyl)biphenyl-4-carboxylic acid] | 49 | 
Cc1cc(Cl)ccc1C(C/C(=N\O)c1ccc(=O)n(C)c1)c1ccc(Br)cc1 (centres unmarked) [Example 226, 5-{3-(4-Bromo-phenyl)-3-(4-chloro-2-methyl-phenyl)-1-[(E)-hydroxyimino]-propyl}-1-methyl-1H-pyridin-2-one] | 38 | 
Cc1cc(Cl)ccc1C(C/C(=N\O)c1ccc(=O)n(C)c1)c1ccc(-c2ccc(C(=O)O)cc2)cc1 (centres unmarked) [Example 227, (E)-4′-(1-(4-Chloro-2-methylphenyl)-3-(hydroxyimino)-3-(1-methyl-6-oxo-1,6-dihydropyridin-3-yl)propyl)biphenyl-4-carboxylic acid] | 55 | 
COC(=O)CNC(=O)c1ccc(-c2ccc(C(C/C(=N\O)c3ccc(=O)n(C)c3)c3ccc(Cl)cc3C)cc2)cc1 (centres unmarked) [Example 228, (E)-methyl 2-(4′-(1-(4-chloro-2-methylphenyl)-3-(hydroxyimino)-3-(1-methyl-6-oxo-1,6-dihydropyridin-3-yl)propyl)biphenyl-4-ylcarboxamido)acetate] | 18 | 
Cc1cc(Cl)ccc1C(C/C(=N\O)c1ccc(=O)n(C)c1)c1ccc(-c2ccc(C(=O)NCC(=O)O)cc2)cc1 (centres unmarked) [Example 229, (E)-2-(4′-(1-(4-chloro-2-methylphenyl)-3-(hydroxyimino)-3-(1-methyl-6-oxo-1,6-dihydropyridin-3-yl)propyl)biphenyl-4-ylcarboxamido)acetic acid] | 22 | 
Cc1cc(Cl)ccc1C(C/C(=N\O)c1ccc(=O)n(C)c1)c1ccc(-c2ccc(C(=O)NCc3nnn[nH]3)cc2)cc1 (centres unmarked) [Example 230, (E)-N-((1H-tetrazol-5-yl)methyl)-4′-(1-(4-chloro-2-methylphenyl)-3-(hydroxyimino)-3-(1-methyl-6-oxo-1,6-dihydropyridin-3-yl)propyl)biphenyl-4-carboxamide] | 18 | 
Cn1cc(/C(CC(c2ccc(C(=O)N[C@H]3CC[C@H](C(=O)O)CC3)c(F)c2)c2ccccc2Cl)=N/O)ccc1=O (stereo partly drawn) [Example 231, Trans-4-{4-[1-(2-Chloro-phenyl)-3-[(E)-hydroxyimino]-3-(1-methyl-6-oxo-1,6-dihydro-pyridin-3-yl)-propyl]-2-fluoro-benzoylamino}-cyclohexanecarboxylic acid] | 283 | 
COCCNC(=O)c1ccc(C(C/C(=N\O)c2ccc(=O)n(C)c2)c2ccccc2Cl)cc1F (centres unmarked) [Example 232, (E)-4-(1-(2-Chlorophenyl)-3-(hydroxyimino)-3-(1-methyl-6-oxo-1,6-dihydropyridin-3-yl)propyl)-2-fluoro-N-(2-methoxyethyl)benzamide] | 137 | 
Cn1cc(/C(CC(c2ccc(C(=O)NC3CC3)c(F)c2)c2ccccc2Cl)=N/O)ccc1=O (centres unmarked) [Example 233, (E)-4-(1-(2-Chlorophenyl)-3-(hydroxyimino)-3-(1-methyl-6-oxo-1,6-dihydropyridin-3-yl)propyl)-N-cyclopropyl-2-fluorobenzamide] | 186 | 
